Laboratory results: ChEMBL document CHEMBL1201862, “PubChem BioAssay data set” (2004)
Activity calls are given as the source filed them.

Key:
[1] = target: T1, Probable nicotinate-nucleotide adenylyltransferase (Staphylococcus aureus (strain N315), UniProt P65502); assay type: functional, Staphylococcus aureus subsp. aureus N315;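 on IC50 Mean: confirmatory dose-response retesting of NadD inhibitor hits first found in an ultra-high-throughput screen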
[2] = target: T1, Probable nicotinate-nucleotide adenylyltransferase; assay type: functional, Staphylococcus aureus subsp. aureus N315; settings: read-out: IC50_Mean
[3] = inhibitors of firefly luciferase expression or activity, dose response, H4 neuroglioma cells, luminescence (AID 1990); assay type: functional, cell-based
[4] = Luminescence Cell-Based Dose Response HTS to Identify Inhibitors of 5'UTR Stem-Loop Driven Prion Protein mRNA Translation in H4 Neuroglioblastoma Cells. [Related pubchem assays: 1827 (Project Summary), 1813 (Primary HTS)]; assay type: functional
[5] = inhibitors of SNCA 5'UTR-driven reporter translation, confirmation, H4 neuroglioma cells, luminescence (AID 1988); assay type: functional, cell-based
[6] = target: T2, Short transient receptor potential channel 4 (Mus musculus, UniProt Q9QUQ5); assay: mouse TRPC4 channel inhibitors, dose response, cell-based, HEK293 TRPC4/mu-opioid, Fluo-4 calcium (AID 434942); assay type: functional;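 further: potency of inhibitors blocking the TRPC4 calcium response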
T2 sequence (Q9QUQ5 whole entry): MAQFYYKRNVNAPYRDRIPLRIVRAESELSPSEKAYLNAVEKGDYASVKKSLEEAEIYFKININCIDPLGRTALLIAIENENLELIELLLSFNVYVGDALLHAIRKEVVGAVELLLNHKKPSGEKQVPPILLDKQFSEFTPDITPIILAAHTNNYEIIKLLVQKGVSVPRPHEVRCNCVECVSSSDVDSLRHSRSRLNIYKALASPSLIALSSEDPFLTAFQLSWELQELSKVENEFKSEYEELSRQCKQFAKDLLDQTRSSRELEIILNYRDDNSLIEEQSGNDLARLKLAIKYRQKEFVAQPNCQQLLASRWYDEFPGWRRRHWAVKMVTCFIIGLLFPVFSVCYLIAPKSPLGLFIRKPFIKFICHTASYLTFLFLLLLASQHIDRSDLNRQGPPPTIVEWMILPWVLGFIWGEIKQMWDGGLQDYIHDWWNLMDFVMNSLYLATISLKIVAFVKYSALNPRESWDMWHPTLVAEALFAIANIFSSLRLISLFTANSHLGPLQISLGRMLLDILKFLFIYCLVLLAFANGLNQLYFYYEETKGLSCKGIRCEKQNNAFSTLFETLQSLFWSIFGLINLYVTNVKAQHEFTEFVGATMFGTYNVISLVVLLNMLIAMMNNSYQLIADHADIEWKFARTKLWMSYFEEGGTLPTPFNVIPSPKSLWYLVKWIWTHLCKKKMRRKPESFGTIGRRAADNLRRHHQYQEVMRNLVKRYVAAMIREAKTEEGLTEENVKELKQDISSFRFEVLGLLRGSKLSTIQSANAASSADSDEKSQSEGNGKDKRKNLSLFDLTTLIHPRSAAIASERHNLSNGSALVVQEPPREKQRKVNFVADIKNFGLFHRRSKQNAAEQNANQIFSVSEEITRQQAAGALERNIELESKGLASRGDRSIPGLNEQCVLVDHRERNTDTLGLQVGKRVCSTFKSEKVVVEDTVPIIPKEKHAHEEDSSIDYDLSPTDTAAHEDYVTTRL

Insulin-degrading enzyme [7] = target: T3, Insulin-degrading enzyme (Homo sapiens, UniProt P14735); assay: activators of recombinant IDE enzyme, dose response, counter-screen for IDE activator project, biochemical, fluorescence polarization (AID 588681)
T3 sequence (P14735 whole entry): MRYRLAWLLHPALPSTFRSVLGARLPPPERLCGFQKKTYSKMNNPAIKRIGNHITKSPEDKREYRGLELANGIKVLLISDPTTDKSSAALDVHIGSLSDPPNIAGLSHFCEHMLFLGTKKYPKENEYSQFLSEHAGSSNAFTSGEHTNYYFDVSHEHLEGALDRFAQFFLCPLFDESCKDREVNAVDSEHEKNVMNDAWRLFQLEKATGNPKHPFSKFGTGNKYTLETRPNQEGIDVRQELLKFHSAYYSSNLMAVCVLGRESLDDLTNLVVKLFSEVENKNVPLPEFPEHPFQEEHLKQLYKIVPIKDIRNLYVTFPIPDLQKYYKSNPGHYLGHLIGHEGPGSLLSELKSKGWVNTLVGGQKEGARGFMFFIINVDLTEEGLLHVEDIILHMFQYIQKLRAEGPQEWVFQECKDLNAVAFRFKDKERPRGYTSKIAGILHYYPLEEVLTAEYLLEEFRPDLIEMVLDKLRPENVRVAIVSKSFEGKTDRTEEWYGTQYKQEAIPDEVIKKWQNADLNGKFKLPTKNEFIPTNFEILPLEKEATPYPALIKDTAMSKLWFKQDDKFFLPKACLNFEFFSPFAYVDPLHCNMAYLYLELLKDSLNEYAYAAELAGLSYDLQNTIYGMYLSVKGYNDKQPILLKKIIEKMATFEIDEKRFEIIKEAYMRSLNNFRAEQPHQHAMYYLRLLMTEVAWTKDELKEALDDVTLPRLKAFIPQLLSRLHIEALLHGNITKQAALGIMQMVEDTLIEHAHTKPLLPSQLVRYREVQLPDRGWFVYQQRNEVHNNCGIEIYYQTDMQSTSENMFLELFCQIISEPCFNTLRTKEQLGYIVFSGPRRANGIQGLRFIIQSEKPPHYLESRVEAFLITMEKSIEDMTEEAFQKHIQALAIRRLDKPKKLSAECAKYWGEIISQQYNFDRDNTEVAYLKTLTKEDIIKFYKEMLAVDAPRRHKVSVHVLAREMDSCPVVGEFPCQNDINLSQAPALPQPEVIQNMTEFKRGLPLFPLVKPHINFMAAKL

Insulin-degrading enzyme [8] = target: T3, Insulin-degrading enzyme; assay: activators of endogenous IDE in HEK cells, dose response, cell-based, fluorescence polarization (AID 588439); assay type: functional
HEK293 [9] = assay: HEK cell cytotoxicity by LDH release, dose response, cytotoxicity control for IDE activator project, fluorescence, HEK cells (AID 588440); assay type: functional, cell-based; settings: Homo sapiens;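 further: cytotoxicity by LDH release measuring loss of membrane integrity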
HEK293 [10] = assay: optical interference in Abeta FP readout, dose response, artefact control for IDE activator project, biochemical, fluorescence polarization (AID 588442); assay type: functional, cell-based; settings: Homo sapiens
[11] = inhibitors of intracellular T. cruzi replication, confirmation, NIH3T3 host cells, beta-gal luminescence (AID 2044); assay type: functional, cell-based;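 further: intracellular parasites grown in NIH/3T3 mouse fibroblasts as host cells; luminescent beta-galactosidase reporter signal from transgenic T. cruzi replicating inside host cells; inhibitors lower the luminescence signal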
[12] = cytotoxicity toward NIH3T3 fibroblasts, dose response, counter-screen, cell-based, ATP luminescence, mouse fibroblasts (AID 2010); assay type: functional;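 further: cells exposed to compound for about 90 hours before reading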
[13] = THP-1 cell cytotoxicity, dose response, cytotoxicity control for non-replicating M. tuberculosis project (AID 489025); assay type: functional
[14] = MDA-MB-231 cell growth inhibition, dose response, cytotoxicity control for RAD54 inhibitor project, CellTiter-Glo luminescence, cherry-pick (AID 651692); assay type: functional, cell-based
[15] = target: T4, DNA repair and recombination protein RAD54-like (Homo sapiens, UniProt Q92698); assay: inhibitors of human RAD54 branch migration, confirmation, biochemical, fluorescence, cherry-picked samples, dose series (AID 651657); assay type: functional
T4 sequence (Q92698 whole entry): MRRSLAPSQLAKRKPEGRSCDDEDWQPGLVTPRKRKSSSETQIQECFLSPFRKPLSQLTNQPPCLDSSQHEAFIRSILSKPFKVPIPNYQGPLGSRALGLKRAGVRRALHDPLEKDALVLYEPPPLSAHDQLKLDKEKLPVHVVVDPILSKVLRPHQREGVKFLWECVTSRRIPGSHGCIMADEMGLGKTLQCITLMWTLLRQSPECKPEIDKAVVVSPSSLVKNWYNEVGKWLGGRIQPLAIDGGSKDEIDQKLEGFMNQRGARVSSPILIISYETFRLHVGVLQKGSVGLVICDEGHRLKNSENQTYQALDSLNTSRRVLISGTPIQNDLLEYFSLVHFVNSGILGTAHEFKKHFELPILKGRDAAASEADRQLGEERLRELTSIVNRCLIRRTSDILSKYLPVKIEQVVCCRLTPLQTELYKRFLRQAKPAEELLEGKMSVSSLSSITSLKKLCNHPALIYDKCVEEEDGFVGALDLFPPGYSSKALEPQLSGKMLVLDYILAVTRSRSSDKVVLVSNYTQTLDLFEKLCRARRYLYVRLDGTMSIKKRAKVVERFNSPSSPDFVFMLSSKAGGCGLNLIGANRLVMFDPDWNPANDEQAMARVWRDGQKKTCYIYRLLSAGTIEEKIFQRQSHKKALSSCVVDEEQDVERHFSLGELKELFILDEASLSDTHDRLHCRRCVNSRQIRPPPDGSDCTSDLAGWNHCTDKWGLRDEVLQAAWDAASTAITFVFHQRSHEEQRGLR

[16] = target: T5, Sentrin-specific protease 1 (Homo sapiens, UniProt Q9P0U3); assay: potency of human SENP1 inhibitors, dose response, biochemical, kinetic FRET (AID 651697); assay type: functional; settings: read-out: IC50_Mean
T5 sequence (Q9P0U3 whole entry): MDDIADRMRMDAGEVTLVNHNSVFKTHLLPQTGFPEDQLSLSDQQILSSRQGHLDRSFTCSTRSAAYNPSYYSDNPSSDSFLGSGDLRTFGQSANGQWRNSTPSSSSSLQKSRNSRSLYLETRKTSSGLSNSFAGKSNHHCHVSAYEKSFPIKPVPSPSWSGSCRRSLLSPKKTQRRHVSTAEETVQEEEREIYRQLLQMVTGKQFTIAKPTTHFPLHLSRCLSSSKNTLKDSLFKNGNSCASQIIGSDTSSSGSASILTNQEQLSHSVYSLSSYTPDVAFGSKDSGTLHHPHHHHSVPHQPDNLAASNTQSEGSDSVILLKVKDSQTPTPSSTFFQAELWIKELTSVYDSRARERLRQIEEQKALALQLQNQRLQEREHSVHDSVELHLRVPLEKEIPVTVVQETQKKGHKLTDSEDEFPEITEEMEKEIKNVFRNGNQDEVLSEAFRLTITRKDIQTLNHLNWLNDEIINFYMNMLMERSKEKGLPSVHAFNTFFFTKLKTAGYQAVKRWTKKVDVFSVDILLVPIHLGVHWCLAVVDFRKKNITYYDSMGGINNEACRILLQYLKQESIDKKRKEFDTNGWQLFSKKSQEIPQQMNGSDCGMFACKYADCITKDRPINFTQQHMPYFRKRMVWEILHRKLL

[17] = target: T5, Sentrin-specific protease 1; assay: Dose response confirmation of small molecule inhibitors of the catalytic domain of the SUMO protease, SENP1 in a FRET assay.; assay type: functional; settings: read-out: IC50_Mean

T1 sequence (P65502 whole entry): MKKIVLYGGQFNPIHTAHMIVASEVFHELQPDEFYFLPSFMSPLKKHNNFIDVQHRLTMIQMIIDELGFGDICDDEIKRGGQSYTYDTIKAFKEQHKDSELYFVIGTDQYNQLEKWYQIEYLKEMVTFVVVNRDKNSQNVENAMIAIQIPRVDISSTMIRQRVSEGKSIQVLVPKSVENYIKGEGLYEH

In the case of `Cc1cc2[nH]c(=O)c(=O)[nH]c2cc1S(=O)(=O)N1CCN(c2cccc(C(F)(F)F)c2)CC1`, the IC50 [1] is reported as 9.57 µM (active) and the IC50 [2] is reported as 29.2 µM (active).
In the case of `COc1ccc(/C=C2/SC(=S)N(CCCC(=O)Nc3ccccc3C(=O)O)C2=O)cc1`, the EC50 [3] is reported as 11 µM (active), the EC50 [4] is reported as 11.2 µM (active) and the EC50 [5] is reported as 11.1 µM (active). The EC50 [6] was 6.68 µM (active), the EC50 (Insulin-degrading enzyme [7]) was > 54.6 µM (inactive) and the EC50 (Insulin-degrading enzyme [8]) was > 54.6 µM (inactive). For the same molecule, the IC50 (HEK293 [9]) was > 89.1 µM (inactive) and the EC50 (HEK293 [10]) was 58.7 µM (inactive).
For `CCN(CC)CCSc1nnc2c3cc(C)ccc3n(Cc3ccccc3)c2n1`, the EC50 [11] was 0.754 µM (active), the EC50 [12] was > 60 µM (not active) and the CC50 [13] was 26.1 µM (active). The AC50 [14] was 30.6 µM (active) and the AC50 [15] was 31.4 µM (active).
With `C=CCOCCN1C(=O)C2C(c3ccccc3)C=CC(c3ccccc3)C2C1=O` (configuration not stated) the IC50 [16] was 6.05 µM (active) and the IC50 [17] was 4.3 µM (active).
